Results on 74 compounds are retold here after paper PMC12040169 (PLOS Biology, 2025).

The nature of one data set: in vitro. As to conditions: human, hela cells, % viability.
By viability is commonly meant a read-out of living cells in per cent, often relative to untreated cells. With `COc1ccc(-n2nc3cc(C)c(NC(=O)c4ccc(-c5ccc([N+](=O)[O-])cc5OC)o4)cc3n2)cc1` [CBK263766], the viability at 28.5 h, 10 µM worked out at 99.3%.
Still for that read-out and setting: for `Cc1ccc(S(=O)(=O)N(CC(=O)O)c2ccc(Cl)cc2)cc1` [CBK263767] the value was 106%; for `CN(C)S(=O)(=O)N1CCC(Cc2ccccc2)CC1` [CBK263768], 98.2%; for `Cc1ccc(C(C)C)c(OCC(=O)Nc2ccc(F)c([N+](=O)[O-])c2)c1` [CBK263771], 91.7%.
Same read-out and setting: the same measure for `CC(SCc1ccccc1)C(=O)NC(C)c1ccccc1` (centres unmarked) [CBK263772]: 103%; for `Cc1cc(C)cc(N(CC(=O)O)S(C)(=O)=O)c1` [CBK263775]: 111%; for `O=C(CN(c1ccc(Cl)cc1)S(=O)(=O)c1ccccc1)Nc1ccc2ccccc2c1` [CBK263776]: 112%.
As for `O=C(CN(c1ccccc1)S(=O)(=O)c1ccccc1[N+](=O)[O-])Nc1ccccc1` [CBK263777], the viability at 28.5 h, 10 µM was determined as 76.3%.
Same read-out and setting: the same measure for `Cc1ccc(S(=O)(=O)N(CC(=O)O)c2ccc(C)c(C)c2)cc1` [CBK263778]: 89.6%.
The same measure, in the same setting: for `O=C(COc1ccc2ccccc2c1)Nc1cc([N+](=O)[O-])ccc1F` [CBK263780] the value was 92.8%; for `CC(NC(=O)CN(c1ccc(Cl)c(Cl)c1)S(=O)(=O)c1ccccc1)c1ccccc1` (centres unmarked) [CBK263781], 92.8%.
Same read-out and setting: for `O=C(O)CN(c1ccc([N+](=O)[O-])cc1)S(=O)(=O)c1ccccc1` [CBK263782] the value was 92.7%.
Consider `O=C(COc1cc(Cl)c(Cl)cc1Cl)N1CCN(c2ccc([N+](=O)[O-])cc2)CC1` [CBK263783], for which the viability at 28.5 h, 10 µM worked out at 97.1%.
The same measure, in the same setting: the same measure for `Cc1ccc(S(=O)(=O)NCCNc2ccc(Cl)cc2[N+](=O)[O-])cc1` [CBK263784]: 104%; for `COc1ccc(NC(=O)c2ccc(CN3CCOCC3)cc2)c(OC)c1` [CBK263790]: 91.4%; for `Cc1cc(/C=C(/C#N)c2nc3ccccc3[nH]2)c(C)n1-c1ccc(N2CCOCC2)cc1` [CBK263792]: 94%.
On to `Cc1ccc(N(Cc2ccc(C(=O)N(C)Cc3ccccc3)cc2)S(C)(=O)=O)cc1C` [CBK263795], for which the viability at 28.5 h, 10 µM was determined as 81.5%.
The same measure, in the same setting: for `CC(=O)C1=C(O)C(=O)N(CCCC(=O)O)C1c1cccc([N+](=O)[O-])c1` (centres unmarked) [CBK263801] the value was 103%; for `O=C(COc1ccc([N+](=O)[O-])cc1)Nc1cccc2nsnc12` [CBK263808], 94.8%.
As to `COc1ccc(C2=C(Nc3ccc(C(=O)NCc4cccnc4)cc3)c3ccccc3C2=O)cc1` [CBK263809], the viability at 28.5 h, 10 µM is 89.1%.
On the same count and under the same terms, for `COc1cccc(NC(=O)CSc2ccc(Cl)cc2)c1` [CBK263811] the value was 85.6%; for `COc1cc(/C=N/n2cnnc2)ccc1OS(=O)(=O)c1ccccc1[N+](=O)[O-]` [CBK263814], 89.3%; for `Cc1cc(/C=N/NC(=O)C(=O)NCc2ccccn2)c(C)n1-c1cccc(Br)c1` [CBK263815], 93.2%.
The same measure, in the same setting: for `CC(NS(=O)(=O)N(C)C)c1ccccc1` (centres unmarked) [CBK263819] the value was 96.6%; for `O=C(CCN1CCOCC1)Nc1ccc(Cl)cc1` [CBK263820], 98.8%; for `CCN(CC)Cc1c(O)ccc2cc(-c3nc4ccccc4[nH]3)c(=O)oc12` [CBK263824], 102%.
Still for that read-out and setting: the same measure for `Cc1cccn2c(=O)c(/C=C3\SC(=S)N(CC4CCCO4)C3=O)c(NCCCn3ccnc3)nc12` (centres unmarked) [CBK263825]: 119%; for `CCOC(=O)c1c(-c2ccccc2)oc2ccc(OCC(=O)NN)cc12` [CBK263826]: 91.8%.
As to `CC(=O)Oc1ccc(-c2cccc(C(=O)NCC(=O)O)c2)cc1` [CBK263828], the viability at 28.5 h, 10 µM is 86.9%.
Same read-out and setting: for `CC(=O)Oc1ccc(-c2cccc(C(=O)NCCO)c2)cc1` [CBK263829] the value was 105%; for `Cc1cccn2c(=O)c(/C=C3\SC(=S)N(Cc4ccccc4)C3=O)c(NCCCn3ccnc3)nc12` [CBK263833], 102%; for `COC(=O)c1c(NC(=O)CC2SCC(C(=O)OC)NC2=O)sc2c1CCCC2` (centres unmarked) [CBK263834], 94.5%.
The same measure, in the same setting: for `O=C(c1ccc(S(=O)(=O)N2CCCCCC2)cc1)N1CCC(CN2C(=O)c3cccc4cccc(c34)C2=O)CC1` [CBK263835] the value was 98.1%.
Still for that read-out and setting: for `Cc1cccn2c(=O)c(/C=C3\SC(=S)N(C(C)c4ccccc4)C3=O)c(NCCCn3ccnc3)nc12` (centres unmarked) [CBK263836] the value was 92.9%; for `Cc1nnc2nc(-c3cccc(Cl)c3Cl)[nH]n12` [CBK263845], 94.2%.
On to `N/C(=N/OC(=O)c1ccc2nsnc2c1)c1ncon1` [CBK263847], for which the viability at 28.5 h, 10 µM was determined as 105%.
On the same count and under the same terms, the same measure for `CN(C1=NS(=O)(=O)c2ccccc21)c1ccc(OC(=O)C2CC(=O)N(c3ccccc3)C2)cc1` (centres unmarked) [CBK263849]: 87%; for `Cc1ccc(CSc2nnc(-c3ccc(NC(=O)/C=C/c4ccccc4)cc3)n2C)cc1` [CBK263850]: 90.4%.
`Cc1ccc(C(=O)C(NC(=O)c2ccco2)Nc2cccc3ccccc23)cc1` (centres unmarked) [CBK263856]: the viability at 28.5 h, 10 µM amounted to 86.3%.
Same read-out and setting: the same measure for `N=C1NS(=O)(=O)NC1c1ccc(Cl)cc1` (centres unmarked) [CBK263858]: 88.4%; for `CN1C(=O)C(CC(=O)Nc2ccc(F)cc2)N(CCc2ccccc2)C1=S` (centres unmarked) [CBK263861]: 118%; for `O=C(O)c1cccc(-c2ccc(/C=N/NC(=O)c3sc4ccccc4c3Cl)o2)c1` [CBK263863]: 91%.
For `C(=N\n1cnnc1)/c1ccccc1OCc1cccc2ccccc12` [CBK263864], the viability at 28.5 h, 10 µM amounted to 94.6%.
Still for that read-out and setting: for `CCOC(=O)C1=C(C)NC(=O)NC1c1ccc(-c2ccccc2F)o1` (centres unmarked) [CBK263867] the value was 95.7%; for `O=C(CC1C(=O)N(Cc2ccccc2)C(=S)N1Cc1ccccc1)Nc1ccccc1` (centres unmarked) [CBK263871], 97.3%; for `O=C(O)c1cc(NS(=O)(=O)c2ccc(N3CCCCC3)c([N+](=O)[O-])c2)cc(C(=O)O)c1` [CBK263876], 101%.
The same measure, in the same setting: the same measure for `N/C(=N\C(=O)CN1C(=O)C2CCCCC2C1=O)Nc1nc2ccccc2s1` (centres unmarked) [CBK263877]: 92.4%; for `COc1ccccc1NCC(=O)n1nc(C)cc1C` [CBK263879]: 97.8%.
On the same count and under the same terms, the same measure for `O=C(O)COC(=O)C1C(c2ccccc2)C(C(=O)O)C1c1ccccc1` (centres unmarked) [CBK263881]: 85.9%; for `Cc1cc(/C=C2/NC(=S)NC2=O)c(C)n1-c1ccc(Sc2ccc([N+](=O)[O-])cc2)cc1` [CBK263883]: 109%.
For the compound `Cc1ccc(NC(=O)CCC(=O)N/N=C/c2ccco2)c(C)c1` [CBK263885], the viability at 28.5 h, 10 µM turned out to be 96.4%.
The same measure, in the same setting: for `O=C1c2ccccc2C(=O)N1CSc1nnc2c3ccccc3n(CCc3ccccc3)c2n1` [CBK263891] the value was 97.7%; for `C=CCn1c2ccccc2c2nnc(SCC(=O)Nc3c(C)n(C)n(-c4ccccc4)c3=O)nc21` [CBK263892], 87.6%; for `COc1ccc(C(=O)Nc2ccc(N3CCOCC3)c(Cl)c2)cc1[N+](=O)[O-]` [CBK263894], 100%.
On the same count and under the same terms, the same measure for `Cc1ccccc1C(=O)Nc1cccc(NC(=S)NC(=O)c2cccs2)c1` [CBK263895]: 93.1%.
Same read-out and setting: for `O=C(CSc1nc(-c2ccccc2)cc(-c2ccccc2)n1)Nc1cccc([N+](=O)[O-])c1` [CBK263896] the value was 97.9%; for `Cc1ccc2oc(-c3ccc(C)c(NC(=S)NC(=O)c4ccc([N+](=O)[O-])cc4)c3)nc2c1` [CBK263897], 90.4%.
As for `O=C(COc1ccccc1)Nc1nnc[nH]1` [CBK263898], the viability at 28.5 h, 10 µM came to 108%.
Same read-out and setting: for `Cn1c2ccc(Br)cc2c2nnc(SCC(=O)N3c4ccccc4Sc4ccccc43)nc21` [CBK263900] the value was 88.7%; for `O=C(CC(NC(=O)c1ccccc1)c1ccccc1)Nc1cccc2ccccc12` (centres unmarked) [CBK263901], 98.9%; for `COc1ccc(-c2c(C(F)(F)F)oc3cc(OC(=O)c4cccc(C)c4)ccc3c2=O)cc1OC` [CBK263907], 99.3%.
The same measure, in the same setting: for `Cc1cc(C)cc(Oc2coc3c(CN4CCOCC4)c(O)ccc3c2=O)c1` [CBK263908] the value was 89.7%; for `O=C(Cc1ccc(Cl)cc1)NC(=S)Nc1ccccc1[N+](=O)[O-]` [CBK263909], 95.4%; for `Cc1cc(C)nc(N/C(=N\C(=O)c2ccccc2)N2CCC(C(N)=O)CC2)n1` [CBK263910], 99.4%.
As for `CS(=O)(=O)N(CC(=O)N/N=C/c1ccncc1)c1ccccc1Br` [CBK263911], the viability at 28.5 h, 10 µM was 100%.
On to `Cc1c(NC(=O)COc2ccc([N+](=O)[O-])cc2)cccc1-c1nc2ncccc2o1` [CBK263912], for which the viability at 28.5 h, 10 µM is 105%.
Turning to `COc1ccc(-c2nnc3[nH]c(=O)n(C)c(=O)c3n2)cc1OC` [CBK263914], the viability at 28.5 h, 10 µM was determined as 89%.
Still for that read-out and setting: for `Cc1c(NC(=O)CSc2nnc3c4ccccc4n(C(C)C)c3n2)c(=O)n(-c2ccccc2)n1C` [CBK263916] the value was 105%.
As for `O=C(O)c1ccccc1Nc1c2ccccc2nc2ccccc12` [CBK263921], the viability at 28.5 h, 10 µM was found to be 96%.
Same read-out and setting: the same measure for `Cc1ccc2oc(-c3cc(NC(=S)NC(=O)c4ccc([N+](=O)[O-])cc4)ccc3O)nc2c1` [CBK263923]: 94.3%; for `Cc1ccc(OCC(=O)NC(=S)Nc2cccc(-c3nc4ncccc4o3)c2C)cc1` [CBK263925]: 109%; for `CCOC(=O)C(CO)NC(=O)c1cncc(Br)c1` (centres unmarked) [CBK263926]: 83.8%.

Staying with this data set, now noted: human, hela cells, % viability, bulk resorufin, single well.
In the case of `O=C1NC(=O)N(c2ccc(F)cc2)C(=O)/C1=C/c1ccccc1OCc1ccc([N+](=O)[O-])cc1` [CBK263846], the viability at 28.5 h, 10 µM amounted to 93.5%.
The same measure, in the same setting: for `CN1C(=O)C(=Cc2ccc(-c3cccc([N+](=O)[O-])c3)o2)C(=O)N(C)C1=S` [CBK263903] the value was 95.1%.
